Source: ChEMBL document CHEMBL4196010, “New hydrazides derivatives of isoniazid against Mycobacterium tuberculosis: Higher potency and lower hepatocytotoxicity” (Eur J Med Chem, 2018)
In brackets after ≈: the same amount, converted by molar mass.

Columns and labels:
[1] = tested on: Mycobacterium tuberculosis; assay: Antitubercular activity against Mycobacterium tuberculosis H37Rv ATCC 27294 after 5 days by microplate alamar blue assay; type: functional; conditions: H37Rv ATCC 27294, 120 h
[2] = tested on: Mycobacterium tuberculosis; assay: Potency index, ratio of ethambutol MIC to compound MIC for antitubercular activity against Mycobacterium tuberculosis H37Rv ATCC 27294; type: functional
[3] = Selectivity index, ratio of LC50 for human HepG2 cells to MIC for Mycobacterium tuberculosis H37Rv ATCC 27294; type: toxicity; conditions: read-out: Selectivity Index
[4] = tested on: Salmonella typhimurium; assay: Genotoxicity in Salmonella typhimurium TA100 assessed as increase in revertant colonies at 5 uM preincubated for 20 mins followed by addition of top agar and minimal agar and measured after 72 hrs in presence of S9 metabolic activation system by Ames test relative to control; type: toxicity, organism-based; conditions: salmonella enterica subsp. enterica serovar typhimurium
[5] = tested on: Salmonella typhimurium; assay: Genotoxicity in Salmonella typhimurium TA98 assessed as increase in revertant colonies at 5000 uM preincubated for 20 mins followed by addition of top agar and minimal agar and measured after 72 hrs in absence of S9 metabolic activation system by Ames test relative to control; type: toxicity, organism-based; conditions: salmonella enterica subsp. enterica serovar typhimurium
[6] = tested on: J774.A1; assay: Cytotoxicity against mouse J774A.1 cells assessed as decrease in cell viability at 10 nM after 20 hrs by resazurin dye-based fluorimetric method; conditions: j774.a1, 20 h, 0.01 µM
[7] = tested on: J774.A1; assay: Cytotoxicity against mouse J774A.1 cells assessed as decrease in cell viability at 10 uM after 20 hrs by resazurin dye-based fluorimetric method; conditions: j774.a1, 20 h
[8] = tested on: Salmonella typhimurium; assay: Genotoxicity in Salmonella typhimurium TA98 assessed as increase in revertant colonies at 50 uM preincubated for 20 mins followed by addition of top agar and minimal agar and measured after 72 hrs in absence of S9 metabolic activation system by Ames test relative to control; type: toxicity, organism-based; conditions: salmonella enterica subsp. enterica serovar typhimurium
[9] = tested on: Salmonella typhimurium; assay: Genotoxicity in Salmonella typhimurium TA98 assessed as increase in revertant colonies at 5 uM preincubated for 20 mins followed by addition of top agar and minimal agar and measured after 72 hrs in presence of S9 metabolic activation system by Ames test relative to control; type: toxicity, organism-based; conditions: salmonella enterica subsp. enterica serovar typhimurium
[10] = tested on: Salmonella typhimurium; assay: Genotoxicity in Salmonella typhimurium TA98 assessed as increase in revertant colonies at 500 uM preincubated for 20 mins followed by addition of top agar and minimal agar and measured after 72 hrs in presence of S9 metabolic activation system by Ames test relative to control; type: toxicity, organism-based; conditions: salmonella enterica subsp. enterica serovar typhimurium
[11] = Cytotoxicity against human HepG2 cells after 3 hrs by WST-1 assay; type: cell-based; conditions: read-out: LC50
[12] = tested on: Salmonella typhimurium; assay: Genotoxicity in Salmonella typhimurium TA98 assessed as increase in revertant colonies at 5000 uM preincubated for 20 mins followed by addition of top agar and minimal agar and measured after 72 hrs in presence of S9 metabolic activation system by Ames test relative to control; type: toxicity, organism-based; conditions: salmonella enterica subsp. enterica serovar typhimurium
[13] = Cytotoxicity against human HepG2 cells after 24 hrs by WST-1 assay; type: cell-based; conditions: read-out: LC50
[14] = tested on: Salmonella typhimurium; assay: Genotoxicity in Salmonella typhimurium TA100 assessed as increase in revertant colonies at 500 uM preincubated for 20 mins followed by addition of top agar and minimal agar and measured after 72 hrs in absence of S9 metabolic activation system by Ames test relative to control; type: toxicity, organism-based; conditions: salmonella enterica subsp. enterica serovar typhimurium
[15] = tested on: Salmonella typhimurium; assay: Genotoxicity in Salmonella typhimurium TA100 assessed as increase in revertant colonies at 5000 uM preincubated for 20 mins followed by addition of top agar and minimal agar and measured after 72 hrs in absence of S9 metabolic activation system by Ames test relative to control; type: toxicity, organism-based; conditions: salmonella enterica subsp. enterica serovar typhimurium
[16] = tested on: Salmonella typhimurium; assay: Genotoxicity in Salmonella typhimurium TA100 assessed as increase in revertant colonies at 0.5 uM preincubated for 20 mins followed by addition of top agar and minimal agar and measured after 72 hrs in presence of S9 metabolic activation system by Ames test relative to control; type: toxicity, organism-based; conditions: salmonella enterica subsp. enterica serovar typhimurium
[17] = tested on: Salmonella typhimurium; assay: Genotoxicity in Salmonella typhimurium TA98 assessed as increase in revertant colonies at 0.5 uM preincubated for 20 mins followed by addition of top agar and minimal agar and measured after 72 hrs in presence of S9 metabolic activation system by Ames test relative to control; type: toxicity, organism-based; conditions: salmonella enterica subsp. enterica serovar typhimurium
[18] = tested on: J774.A1; assay: Cytotoxicity against mouse J774A.1 cells assessed as decrease in cell viability at 1 uM after 20 hrs by resazurin dye-based fluorimetric method; conditions: j774.a1, 20 h
[19] = tested on: Salmonella typhimurium; assay: Genotoxicity in Salmonella typhimurium TA98 assessed as increase in revertant colonies at 5 uM preincubated for 20 mins followed by addition of top agar and minimal agar and measured after 72 hrs in absence of S9 metabolic activation system by Ames test relative to control; type: toxicity, organism-based; conditions: salmonella enterica subsp. enterica serovar typhimurium
[20] = tested on: Salmonella typhimurium; assay: Genotoxicity in Salmonella typhimurium TA100 assessed as increase in revertant colonies at 50 uM preincubated for 20 mins followed by addition of top agar and minimal agar and measured after 72 hrs in presence of S9 metabolic activation system by Ames test relative to control; type: toxicity, organism-based; conditions: salmonella enterica subsp. enterica serovar typhimurium
[21] = tested on: Salmonella typhimurium; assay: Genotoxicity in Salmonella typhimurium TA98 assessed as increase in revertant colonies at 50 uM preincubated for 20 mins followed by addition of top agar and minimal agar and measured after 72 hrs in presence of S9 metabolic activation system by Ames test relative to control; type: toxicity, organism-based; conditions: salmonella enterica subsp. enterica serovar typhimurium
[22] = tested on: J774.A1; assay: Cytotoxicity against mouse J774A.1 cells assessed as decrease in cell viability at 100 uM after 20 hrs by resazurin dye-based fluorimetric method; conditions: j774.a1, 20 h
[23] = tested on: Salmonella typhimurium; assay: Genotoxicity in Salmonella typhimurium TA100 assessed as increase in revertant colonies at 5 uM preincubated for 20 mins followed by addition of top agar and minimal agar and measured after 72 hrs in absence of S9 metabolic activation system by Ames test relative to control; type: toxicity, organism-based; conditions: salmonella enterica subsp. enterica serovar typhimurium
[24] = tested on: Salmonella typhimurium; assay: Genotoxicity in Salmonella typhimurium TA98 assessed as increase in revertant colonies at 500 uM preincubated for 20 mins followed by addition of top agar and minimal agar and measured after 72 hrs in absence of S9 metabolic activation system by Ames test relative to control; type: toxicity, organism-based; conditions: salmonella enterica subsp. enterica serovar typhimurium
[25] = tested on: Salmonella typhimurium; assay: Genotoxicity in Salmonella typhimurium TA100 assessed as increase in revertant colonies at 50 uM preincubated for 20 mins followed by addition of top agar and minimal agar and measured after 72 hrs in absence of S9 metabolic activation system by Ames test relative to control; type: toxicity, organism-based; conditions: salmonella enterica subsp. enterica serovar typhimurium
[26] = tested on: J774.A1; assay: Cytotoxicity against mouse J774A.1 cells assessed as decrease in cell viability at 100 nM after 20 hrs by resazurin dye-based fluorimetric method; conditions: j774.a1, 20 h, 0.1 µM
[27] = tested on: Salmonella typhimurium; assay: Genotoxicity in Salmonella typhimurium TA100 assessed as increase in revertant colonies at 0.5 uM preincubated for 20 mins followed by addition of top agar and minimal agar and measured after 72 hrs in absence of S9 metabolic activation system by Ames test relative to control; type: toxicity, organism-based; conditions: salmonella enterica subsp. enterica serovar typhimurium
[28] = tested on: Salmonella typhimurium; assay: Genotoxicity in Salmonella typhimurium TA98 assessed as increase in revertant colonies at 0.5 uM preincubated for 20 mins followed by addition of top agar and minimal agar and measured after 72 hrs in absence of S9 metabolic activation system by Ames test relative to control; type: toxicity, organism-based; conditions: salmonella enterica subsp. enterica serovar typhimurium
[29] = tested on: Mycobacterium tuberculosis; assay: Potency index, ratio of pyrazinamide MIC to compound MIC for antitubercular activity against Mycobacterium tuberculosis H37Rv ATCC 27294; type: functional
[30] = tested on: J774.A1; assay: Cytotoxicity against mouse J774A.1 cells assessed as decrease in cell viability at 1 nM after 20 hrs by resazurin dye-based fluorimetric method; conditions: j774.a1, 20 h, 0.001 µM
[31] = tested on: Mycobacterium tuberculosis; assay: Antitubercular activity against Mycobacterium tuberculosis; type: functional

CC(=O)Nc1ccc(C)cc1C(F)(F)C(=O)NNC(=O)c1ccncc1
MIC [1]: 6.91 µM (≈ 2.5 µg/mL)

CC(=O)Nc1ccccc1C(F)(F)C(=O)NN=C1CCCCC1
MIC [1]: > 310 µM

CC(=O)Nc1ccccc1C(F)(F)C(=O)NNc1ccccc1
MIC [1]: > 313 µM

CC(=O)Nc1ccc(C)cc1C(=O)C(=O)NNC(=O)c1ccncc1
Ratio [2]: 30
selectivity ratio [3]: > 444
fold change (FC) [4]: 1.5
fold change (FC) [5]: 3.4
Activity [6]: 100%
Activity [7]: 98.2%
fold change (FC) [8]: 1.8
fold change (FC) [9]: 1.7
fold change (FC) [10]: 3.4
CC50 at 3 h [11]: > 200 µM
fold change (FC) [12]: 4
CC50 at 24 h [13]: > 200 µM
fold change (FC) [14]: 1.4
fold change (FC) [15]: 1.6
fold change (FC) [16]: 1.1
fold change (FC) [17]: 1
Activity [18]: 99.2%
fold change (FC) [19]: 1.6
Activity [20]: Toxic
fold change (FC) [21]: 1.8
Activity [22]: 94%
fold change (FC) [23]: 1.2
fold change (FC) [24]: 1.9
fold change (FC) [25]: 1.4
MIC [1]: 0.45 µM (≈ 0.153 µg/mL)
Activity [26]: 99.5%
fold change (FC) [27]: 1.2
fold change (FC) [28]: 1.2
Ratio [29]: 1800
Activity [30]: 100%

CC(=O)Nc1ccc(C)cc1C(F)(F)C(=O)NNc1ccccn1
MIC [1]: > 299 µM

COc1ccc(NC(C)=O)c(C(F)(F)C(=O)NNC(=O)c2ccncc2)c1
MIC [1]: 33.1 µM (≈ 12.5 µg/mL)

CC(=O)Nc1ccc(Cl)cc1C(F)(F)C(=O)NNC(N)=S
MIC [31]: 297 µM (≈ 100 µg/mL)

CC[C@@H](CO)NCCN[C@@H](CC)CO [ETHAMBUTOL]
MIC [1]: 15.9 µM (≈ 3.25 µg/mL)

NNC(=O)c1ccncc1 [ISONIAZID]
selectivity ratio [3]: 119
fold change (FC) [4]: 1.4
fold change (FC) [5]: 4
Activity [6]: 98.2%
Activity [7]: 98.5%
fold change (FC) [8]: 2
fold change (FC) [9]: 1.3
fold change (FC) [10]: 1.6
CC50 at 3 h [11]: > 200 µM
Activity [12]: Toxic
CC50 at 24 h [13]: 105 µM
fold change (FC) [14]: 1.6
fold change (FC) [15]: 1.9
fold change (FC) [16]: 1.4
fold change (FC) [17]: 1.3
Activity [18]: 98.7%
fold change (FC) [19]: 1.6
Activity [20]: Toxic
fold change (FC) [21]: 1.5
Activity [22]: 90.3%
fold change (FC) [23]: 1.2
fold change (FC) [24]: 3.7
fold change (FC) [25]: 1.3
MIC [1]: 0.88 µM (≈ 0.121 µg/mL)
Activity [26]: 97.3%
fold change (FC) [27]: 1.1
fold change (FC) [28]: 1.5
Activity [30]: 99.5%

NC(=O)c1cnccn1 [PYRAZINAMIDE]
MIC [1]: 813 µM (≈ 100 µg/mL)

CO[C@H]1/C=C/O[C@@]2(C)Oc3c(C)c(O)c4c(O)c(c(/C=N/N5CCN(C)CC5)c(O)c4c3C2=O)NC(=O)/C(C)=C\C=C\[C@H](C)[C@H](O)[C@@H](C)[C@@H](O)[C@@H](C)[C@H](OC(C)=O)[C@@H]1C [RIFAMPIN]
MIC [1]: 1.22 µM (≈ 1 µg/mL)
